Experimental data as given in US12582631B2, “Methods of improving renal function” (Chinook Therapeutics, Inc., priority 2019, dated 2026).
Entries after “also recorded” stand apart in the source; their conditions may differ. Like-named read-outs stand apart in the source and are kept apart here. Positions of bridges follow the written chain, without caps; N, C: chain ends. No end group written: not given here.

Legend:
[1] = test system: primary human renal mesangial cells (HRMCs); experiment: Proliferation (BrdU) of HRMCs stimulated with IgA-containing immune complexes from IgAN patients; format: cell-based; conditions: HRMCs treated with IgA containing serum fractions from healthy controls
[2] = test system: IL-6 production in primary human renal mesangial cells (HRMCs); experiment: ET-1 induced IL-6 production in HRMCs (ELISA); format: cell-based; conditions: for IC50: Homo sapiens, Mesangial cell, read-out: IC50, ET-1 stimulated IL-6 production
g-ddY mice = experiment: UACR (albuminuria) in g-ddY mouse model of IgA nephropathy; format: in vivo; conditions: approximately 5 days
Excerpt: The grouped ddY (g-ddY) mouse is a spontaneous model of early-onset IgA nephropathy characterized by IgA immune complex deposition in the mesangium of the kidney, leading to significant proteinuria, glomerular hypercellularity, mesangioproliferative glomerular lesions, glomerular sclerosis and reduced kidney function, all hallmarks of human IgA nephropathy (J Am Soc Nephrol 23: 1364-1374, 2012). Consistent with human IgA nephropathy, the mesangial IgA deposits in the g-ddY mouse are also accompanied by deposition of IgG and complement C3.

[3] = test system: gene expression in kidney tissue of g-ddY mice; experiment: RNA-seq differential gene expression in kidney tissue of g-ddY mice (edgeR); format: in vivo, mouse
Experimental: RNA isolation and sequencing libraries were generated using standard protocols. Sequencing was performed using an Illumina NextSeq500 using manufacturer's instructions with a read length of 75 bp and a read depth of 30 million. Raw data was assembled to FASTQ files. Following QC analysis, high quality sequencing reads (e.g., reads with a Phred quality score >36) were aligned to the mouse reference genome (GRCm38-mm10) using the default parameters of the align algorithm and transcript count tables of each library was generated using the default parameters of the featureCounts algorithm of the RSubread package (Liao […], Shi W, 2019). High quality sequencing reads mapped to 27,129 genes. Following additional QC of low count filtering (i.e. transcripts <10 counts across all samples), 16,207 genes were identified and used for further analysis. The remaining sequencing read counts of the included 16,207 genes were normalized to library size, log-transformed, and were quantified as counts per million (CPM). Select RNA-seq counts were validated using qPCR. Sequencing read counts (CPM) were used for identification of differential gene expression between specified populations using the quasi-likelihood methodology of the edgeR package. […] MA plots were generated using edgeR. Heatmaps and other plots were generated using the gplots and ggplot2 package.

[4] = test system: canonical signaling pathways in kidney tissue of g-ddY mice; experiment: Ingenuity Pathway Analysis (IPA) of canonical pathways, g-ddY kidney RNA-seq; format: in vivo, mouse; conditions: 30 mg/kg/day
[5] = test system: hallmark gene sets in kidney tissue of g-ddY mice; experiment: Gene Set Enrichment Analysis (GSEA) of hallmark gene sets, g-ddY kidney RNA-seq; format: in vivo, mouse
ET-1 stimulated HRMC = experiment: Hallmark gene set enrichment in ET-1 stimulated HRMC treated with atrasentan; format: cell-based, human; conditions: atrasentan at 1 nM and 25 nM

For `CCCCN(CCCC)C(=O)CN1C[C@H](c2ccc3c(c2)OCO3)[C@@H](C(=O)O)[C@@H]1c1ccc(OC)cc1` [atrasentan, (2R,3R,4S)-4-(1,3-benzodioxol-5-yl)-1-[2-(dibutylamino)-2-oxoethyl]-2-(4-methoxyphenyl)pyrrolidine-3-carboxylic acid], the basal cell proliferation [1] was “had no effect on basal cell proliferation”, the IC50 ([2]; 48 h, 10 ng/mL ET-1, 48 hours) was ~1 nM and the IC50 ([2]; 72 h, 10 ng/mL ET-1, 72 hours) was ~1 nM. The “reduction of UACR from baseline” value (g-ddY mice; 20 mg/kg/day in drinking water) was > 60%, the “albuminuria compared to baseline (paired t-test)” value (g-ddY mice; 20 mg/kg/day) was “reduced from baseline to a similar extent” and the “effect on UACR compared to control group (un-paired t-test)” value (g-ddY mice; 20 mg/kg/day) was “statistically significant compared to the control group; also recorded: significantly reduced albuminuria”. The “reduction of UACR from baseline” value (g-ddY mice; 30 mg/kg/day in drinking water) was > 60%, the “albuminuria compared to baseline (paired t-test)” value (g-ddY mice; 30 mg/kg/day) was “reduced albuminuria from baseline” and the “effect on UACR compared to control group (un-paired t-test)” value (g-ddY mice; 30 mg/kg/day) was “statistically significant compared to the control group; also recorded: significantly reduced albuminuria”. For the same molecule, the “differentially expressed genes of the ET1 gene signature” value (“differentially expressed genes” for short) ([3]; 10 mg/kg/day vs untreated control) was “Ccnd1, Ppara, Agt, Map2k2 and Hoxa9 were upregulated while Grk5, Mllt3, Klf2, Pparg, Hgf, Edn1, Fos, Ptgs2, and IL-1b were downregulated”, the “differentially expressed genes” value ([3]; 20 mg/kg/day vs untreated control) was “Ccdn1, Cat, Ppara, Map2k2, Hoxa9, Agt, and Egfr were upregulated while Nfatc1, Grk5, Klf2, Cav1, Pparg, Itga5, Myc, Ednra, Sell, Hgf, Mmp2, Edn1, Syk, Fos, and IL-1b were downregulated” and the “Ednra and Ednrb gene expression” value ([3]; 30 mg/kg/day) was “downregulated”. For the same molecule, the “differentially expressed genes” value ([3]; 30 mg/kg/day vs untreated control) was “upregulated genes Ccnd1, Agt, Cat, Map2k2, Hoxa9, and Ppara and downregulated genes Ednrb, Myc, Mllt3, Hdac7, Ednra, Itga5, Grk5, Pparg, Klf2, Hgf, Mmp2, Sell, Sphk1, Fos, Syk, Edn1, and IL-1b”, the “ET1 (End1) gene expression” value ([3]; all three doses (10, 20, 30 mg/kg/day)) was “downregulated” and the NF-κB signaling [4] was “reduced NF-κB signaling”. For the same molecule, the PDGF signaling [4] was “reduced PDGF signaling”, the IL-6 signaling ([5]; 30 mg/kg/day) was “reduced IL-6 signaling” and the “cell proliferation associated signaling (mitotic spindle and G2M checkpoint)” value ([5]; 30 mg/kg/day) was “reduced cell proliferation associated signaling”. The inflammatory response signaling ([5]; 30 mg/kg/day) was “reduced inflammatory response signaling”, the “NES of hallmark signaling pathways (TNFα signaling via NF-κB, epithelial mesenchymal transition, inflammatory response, IL6-JAK-STAT3 signaling, mitotic spindle, G2M checkpoint)” value ([5]; 10, 20, and 30 mg/kg/day, adjusted p-value <0.05) was < −1.5 and the “enrichment of hallmark gene sets” value (ET-1 stimulated HRMC) was “under-expression of hallmark gene sets”.

With “ET-1: endothelin 1 (ET-1), used at 10 ng/mL to stimulate primary human mesangial cells (CSCSSLMDKECVYFCHLDIIW; disulfide 1-15, 3-11; ends not checked; UniProt P05305 53-73, looked up)” the “increase in IL-6 production” value ([2]; HRMCs exposed to ET-1 over 48 hours) was ~6 fold and the “increase in IL-6 production” value ([2]; HRMCs exposed to ET-1 over 72 hours) was ~2.2 fold.
